# Assay results published in patent US20240109883A1, “Anti-Tumor Compositions and Methods” (priority 2020, published 2024).
# Assays:
# Assay type in all cases: cell-based
# [1] = tested on: human cytomegalovirus (HCMV); assay: Antiviral activity against human cytomegalovirus (HCMV) in MRC5 cells; settings: for IC50 / IC90: Human betaherpesvirus 5, 168 h, MRC5 cells, MOI 0.01 IU per cell, 7 days post infection, mCherry positive cells; for Selectivity Index: SI50: MRC5 TOX 7 d CC50 relative to HCMV IC50
# Protocol: To assess their antiviral activity, some compounds were tested against human cytomegalovirus (HCMV) in vitro. Human MRC5 cells were grown to confluency (˜1.0×10^4 cells/well) in 96-well plate format in Dulbecco's Modified Eagle Medium (DMEM) supplemented with 10% fetal bovine serum (FBS) 2 mM L-glutamine, 0.1 mM non-essential amino acids, 10 mM HEPES, and 100 U/ml each of penicillin and streptomycin and infected with an HCMV variant expressing mCherry tagged pUL99 (the product of late viral UL99 gene) at a multiplicity of 0.01 infectious unit (IU) per cell. Assays were performed in triplicate. One hour later, medium of the cells was replaced with fresh medium containing the indicated compounds at 25, 12.5, 6.25, 3.13, 1.56, 0.78, 0.39 μM or the carrier in which the compounds are dissolved (DMSO). Final concentration of DMSO was 0.5% in each treatment. Virus yield in the culture was determined at 7 days post infection by quantification of fluorescent (mCherry positive) cells in each well by fluorescent microscopy. Results were plotted using CDD Vault (CDD Vault was developed by Collaborative Drug Discovery, Inc., 1633 Bayshore Hwy, Suite 342, Burlingame, CA 94010) in order to calculate IC50s and IC90s.
# [2] = MRC5 TOX 7 d; settings: human
# [3] = MRC5 4d Toxicity Assay; settings: human, confluent MRC5 cells, DAPI cell count, read-out: MRC5 4 d Tox: CC50
# Protocol: MRC5 cells were seeded in 96-well plates 1-2 days prior to treatment to ensure 100% confluence. On the day of treatment, cells were washed once and growth media was replaced. Compound (in DMSO) was added to cells using the following dilution scheme: 25, 12.5, 4.16, 1.4, 0.46, 0.15, 0.05 μM. Test concentrations were assayed in duplicate and included 0 μM (DMSO) control wells. Plates were incubated for 4 days. After treatment, cells were washed, fixed with 4% PFA and stained with DAPI. Plates were imaged using a Cytation 3 plate reader and nuclear DAPI staining was used to quantify cell survival. Dose-response plots were generated using CDD Vault to calculate CC50s.
# [4] = tested on: cMYC; assay: cMYC Degradation Assay (MDA-MB-231 cells, western blot); settings: 72 hours
# Protocol: MDA-MB-231 cells were seeded in 6-well format in complete growth media containing 10% serum and incubated for 48 h to ensure 100% confluence. Compound was added to cells at 5 μM and 10 μM final concentrations for a treatment period of 72 hours. Cells were harvested in ice-cold IP buffer and lysates were cleared by centrifugation. Total protein concentration was determined for each sample by Bradford assay. Proteins were separated by 10% SDS-PAGE and blotted onto PVDF membranes. Membranes were blocked with CosmoBio PDVF blocking reagent for 1 hour, followed by overnight incubation with cMYC primary antibody (Abcam) at 4 C. After several washes, the membanes were probed with secondary antibody for 1 hour at room temperature. Fluorescent signal was acquired using an Odyssey CLx (LI-COR) and quantified using ImageJ software.
# [5] = tested on: MCF7 cells; assay: MCF7 Cell Growth Inhibition Assay; settings: Homo sapiens, 24 h, 10% serum, DAPI cell count, 4-pt dilution from 10 μM
# Protocol: MCF7 cells were seeded in 96-well plates at 10% confluence 24 h prior to treatment. Compound was added to cells in full growth media containing 10% serum, using a 2-fold, 4-pt dilution scheme beginning from 10 μM (10, 5, 2.5, 1.25 μM). Plates were incubated for 24 h. After treatment, cells were washed, fixed with 4% PFA and stained with DAPI. Plates were imaged using a Cytation 3 plate reader and nuclear DAPI staining was used to quantify cell number. % Growth relative to vehicle-treated (DMSO) control wells was plotted using Excel (See FIGS. 1-8). IC50s were calculated by fitting the data points to the following standard equation:
# Growth=1−[Cmpd]^n/(IC50^n+[Cmpd]^n)
# where [Cmpd] is the molar concentration of compound, the IC50 is the concentration where half-maximal effect is seen, and n is the Hill coefficient.
SMILES,IC50 [1] [µM],IC90 [1] [µM],Selectivity Index: SI50 [1],CC50 at 7 d [2] [µM],CC50 at 4 days [3] [µM],MDA-MB-231 cMYC: Fold Decrease in Low MW Band at 5 μM [4] [fold],MDA-MB-231 cMYC: Fold Increase in High MW Band at 5 μM [4] [fold],MDA-MB-231 cMYC: Fold Decrease in Low MW Band at 10 μM [4] [fold],MDA-MB-231 cMYC: Fold Increase in High MW Band at 10 μM [4] [fold],MDA-MB-231 cMYC qualitative degredation [4],GI50 [5] [µM]
NC(=O)Nc1ccc2c(c1)CN(c1ncc(Cc3ccc(N4CCOCC4)cc3)s1)CC2 [Example 005],1.43,2.92,>7.3,> 10.4,,,,,,,
NC(=O)Nc1ccc2c(c1)CN(c1ncc(Cc3ccc(-c4ncccn4)cc3)s1)CC2 [Example 001],1.46,8.72,>7.1,> 10.4,> 25,0.98,0.84,1.2,1.7,no degradation,31.7
CN(C(N)=O)c1ccc2c(c1)CN(c1ncc(Cc3ccc(-c4ncccn4)cc3)s1)CC2 [Example 011],1.48,> 10.4,>7.0,> 10.4,,0.31,1.53,0.5,2.6,partial,
CNC(=O)N(C)c1ccc2c(c1)CN(c1noc(Cc3ccc(-n4cccn4)cc3)n1)CC2 [Example 015],2.51,5.59,17.7,44.4,,,,,,,
NC(=O)Nc1cnc2c(c1)CN(c1ncc(Cc3ccc(-n4cccn4)cc3)s1)CC2 [Example 016],5.25,> 6.77,>3.0,> 15.8,,,,,,,
CNC(=O)N(C)c1ccc2c(c1)CN(c1ncc(Cc3ccc(-n4cccn4)cc3)s1)CC2 [Example 023],0.874,2.9,>15.5,> 13.6,> 25,0.04,0.22,0.0,0.2,total,1.2
NC(=O)Nc1ccc2c(c1)CN(c1ncc(Cc3ccc(-n4cccn4)cc3)s1)CC2 [Example 019],0.791,> 6.61,>8.6,> 6.77,> 25,0.62,1.18,0.9,3.2,partial,11
CN(C)C(=O)N(C)c1ccc2c(c1)CN(c1ncc(Cc3ccc(-n4cccn4)cc3)s1)CC2 [Example 024],1.14,5.31,18.7,21.4,> 25,,,,,,1.8
NC(=O)Nc1ccc2c(c1)CN(c1ncc(Cc3ccc(-c4ccco4)cc3)s1)CC2 [Example 007],1.19,> 2.89,>2.4,> 2.89,,0.63,0.9,0.8,1.3,no degradation,
CS(=O)(=O)c1ccc(Cc2cnc(N3CCc4ccc(NC(N)=O)cc4C3)s2)cc1 [Example 004],5.59,> 25,>2.8,> 15.8,> 25,,,,,,142
CNC(=O)N(C)c1ccc2c(c1)CN(c1nnc(Cc3ccc(-n4cccn4)cc3)s1)CC2 [Example 013],4.27,9.25,>11.7,> 50,,,,,,,
